We go through 15 compounds from US8309577B2, “Quinuclidine compounds as α-7 nicotinic acetylcholine receptor ligands” (Bristol-Myers Squibb Company, priority 2008, dated 2012).

T1 sequence (Q05941 23-502): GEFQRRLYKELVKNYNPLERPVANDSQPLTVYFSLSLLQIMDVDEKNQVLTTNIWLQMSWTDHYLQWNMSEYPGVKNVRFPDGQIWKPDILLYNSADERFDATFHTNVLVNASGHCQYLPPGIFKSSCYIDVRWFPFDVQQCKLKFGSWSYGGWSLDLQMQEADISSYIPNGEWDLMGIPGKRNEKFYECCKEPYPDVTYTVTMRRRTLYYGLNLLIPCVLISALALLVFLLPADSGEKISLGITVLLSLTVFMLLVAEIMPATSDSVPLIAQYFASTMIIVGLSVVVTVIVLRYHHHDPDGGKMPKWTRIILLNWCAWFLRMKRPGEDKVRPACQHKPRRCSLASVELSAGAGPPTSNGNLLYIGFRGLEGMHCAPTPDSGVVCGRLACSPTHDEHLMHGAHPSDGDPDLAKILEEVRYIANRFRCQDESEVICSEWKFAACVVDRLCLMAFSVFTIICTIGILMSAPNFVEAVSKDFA

The assay has as its target T1, α-7 nicotinic acetylcholine receptor channel expressed in HEK 293 cells (Rattus norvegicus, UniProt Q05941).
T1 construct: expressed in transfected cells
Put plainly: Ca2+-sensitive fluorescence-based FLIPR assay, α7 nicotinic ACh receptor channel function (agonist). Type of assay: cell-based. Conditions: FLIPR α7 activity rating (EC50, nM), Table 1; HEK 293 cells, agonist Ca2+ flux. The method in brief:
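Potency and efficacy derived from kinetic FLIPR Ca²⁺-flux fluorescence, recorded 3 min after compound addition in Hanks buffer following a 10 s baseline.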
Compound `Brc1cnc2nc(NC3=NC[C@@]4(CN5CCC4CC5)O3)sc2n1` [Example 263, (R)—N-(6-bromothiazolo[5,4-b]pyrazin-2-yl)-4H-1′-azaspiro[oxazole-5,3′-bicyclo[2.2.2]octan]-2-amine] had a half-maximal effective concentration (EC50) of under 100 nM.

`CSc1cnc2nc(NC3=NC[C@@]4(CN5CCC4CC5)O3)sc2n1` [Example 264, (R)—N-(6-(methylthio)thiazolo[5,4-h]pyrazin-2-yl)-4H-1′-azaspiro[oxazole-5,3′-bicyclo[2.2.2]octan]-2-amine] gave an EC50 of 100 to 1000 nM.

For `COc1ncc2nc(NC3=NC[C@@]4(CN5CCC4CC5)O3)sc2n1` [Example 265, (R)—N-(5-Methoxythiazolo[5,4-d]pyrimidin-2-yl)-4H-1′-azaspiro[oxazole-5,3′-bicyclo[2.2.2]octan]-2-amine], the EC50 was under 100 nM.

Consider `CCc1nnc(NC2=NC[C@@]3(CN4CCC3CC4)O2)o1` [Example 266, (R)—N-(5-Ethyl-1,3,4-oxadiazol-2-yl)-4H-1′-azaspiro[oxazole-5,3′-bicyclo[2.2.2]octan]-2-amine], for which the EC50 lay within 1000 to 100000 nM.

Compound `Clc1cnc(NC2=NC[C@@]3(CN4CCC3CC4)O2)c(Cl)c1` [Example 267, (R)—N-(3,5-Dichloropyridin-2-yl)-4H-1′-azaspiro[oxazole-5,3′-bicyclo[2.2.2]octan]-2-amine] showed a half-maximal effective concentration (EC50) of under 100 nM.

Turning to `Clc1ccc2nc(NC3=NC[C@@]4(CN5CCC4CC5)O3)sc2n1` [Example 268, (R)—N-(5-chlorothiazolo[5,4-b]pyridin-2-yl)-4H-1′-azaspiro[oxazole-5,3′bicyclo[2.2.2]octan]-2-amine], the EC50 was under 100 nM.

With `CN(C)c1ncc2nc(NC3=NC[C@@]4(CN5CCC4CC5)O3)sc2n1` [Example 269, (R)—N^5,N^5-dimethyl-N^2-(4H-1′-azaspiro[oxazole-5,3′-bicyclo[2.2.2]octane]-2-yl)thiazolo[5,4-d]pyrimidine-2,5-diamine], the EC50 was 1000 to 100000 nM.

Consider `c1cn2nc(NC3=NC[C@@]4(CN5CCC4CC5)O3)nc2cn1` [Example 270, (R)—N-([1,2,4]Triazol[1,5-a]pyrazin-2-yl)-4H-1′-azaspiro[oxazole-5,3′-bicyclo[2.2.2]octan]-2-amine], for which the EC50 is under 100 nM.

As to `c1cnc2sc(NC3=NC[C@@]4(CN5CCC4CC5)O3)nc2c1` [Example 271, (R)—N-(Thiazolo[5,4-h]pyridin-2-yl)-4H-1′-azaspiro[oxazole-5,3′-bicyclo[2.2.2]octan]-2-amine], the EC50 was under 100 nM.

`c1cnc2sc(NC3=NC[C@@]4(CN5CCC4CC5)O3)nc2n1` [Example 272, (R)—N-(Thiazolo[5,4-b]pyrazin-2-yl)-4H-1′-azaspiro[oxazole-5,3′-bicyclo[2.2.2]octan]-2-amine] came in with an EC50 of under 100 nM.

Regarding `COc1nc(C)nc2sc(NC3=NC[C@@]4(CN5CCC4CC5)O3)nc12` [Example 273, (R)—N-(7-Methoxy-5-methylthiazolo[5,4-d]pyrimidin-2-yl)-4H-1′-azaspiro[oxazole-5,3′-bicyclo[2.2.2]octan]-2-amine], the EC50 lay in the range of 1000 to 100000 nM.

As to `COc1ncnc2sc(NC3=NC[C@@]4(CN5CCC4CC5)O3)nc12` [Example 274, (R)—N-(7-Methoxythiazolo[5,4-d]pyrimidin-2-yl)-4H-1′-azaspiro[oxazole-5,3′-bicyclo[2.2.2]octan]-2-amine], the EC50 was in the range of 1000 to 100000 nM.

`N#Cc1cnc(NC2=NC[C@@]3(CN4CCC3CC4)O2)s1` [Example 275, (R)-2-(4H-1′-Azaspiro[oxazole-5,3′-bicyclo[2.2.2]octan]-2-ylamino)thiazole-5-carbonitrile] had an EC50 of 100 to 1000 nM.

`c1cc2nc(NC3=NC[C@@]4(CN5CCC4CC5)O3)ccc2cn1` [Example 277, (R)—N-(1,6-Naphthyridin-2-yl)-4H-1′-azaspiro[oxazole-5,3′-bicyclo[2.2.2]octan]-2-amine] showed an EC50 of under 100 nM.

`Clc1cc(Cl)c2cnc(NC3=NC[C@@]4(CN5CCC4CC5)O3)cc2c1` [Example 279, (R)—N-(6,8-Dichloroisoquinolin-3-yl)-4H-1′-azaspiro[oxazole-5,3′-bicyclo[2.2.2]octan]-2-amine] yielded an EC50 of 100 to 1000 nM.
